Read-outs that look alike come from different tables or passages of the source.
Assays:
[1] = biological target: T1, full-length beta-Catenin (Uniprot ID P35222) (Homo sapiens, UniProt P35222); assay: Fluorescence polarization IC50 (beta-catenin / 5FAM-TCF4 10-53 competition); assay type: binding; details: fluorescence polarization; read-out: beta-Catenin FP IC50
T1 construct: 10 nM full-length beta-Catenin (Uniprot ID P35222)
T1 sequence (P35222 1-781): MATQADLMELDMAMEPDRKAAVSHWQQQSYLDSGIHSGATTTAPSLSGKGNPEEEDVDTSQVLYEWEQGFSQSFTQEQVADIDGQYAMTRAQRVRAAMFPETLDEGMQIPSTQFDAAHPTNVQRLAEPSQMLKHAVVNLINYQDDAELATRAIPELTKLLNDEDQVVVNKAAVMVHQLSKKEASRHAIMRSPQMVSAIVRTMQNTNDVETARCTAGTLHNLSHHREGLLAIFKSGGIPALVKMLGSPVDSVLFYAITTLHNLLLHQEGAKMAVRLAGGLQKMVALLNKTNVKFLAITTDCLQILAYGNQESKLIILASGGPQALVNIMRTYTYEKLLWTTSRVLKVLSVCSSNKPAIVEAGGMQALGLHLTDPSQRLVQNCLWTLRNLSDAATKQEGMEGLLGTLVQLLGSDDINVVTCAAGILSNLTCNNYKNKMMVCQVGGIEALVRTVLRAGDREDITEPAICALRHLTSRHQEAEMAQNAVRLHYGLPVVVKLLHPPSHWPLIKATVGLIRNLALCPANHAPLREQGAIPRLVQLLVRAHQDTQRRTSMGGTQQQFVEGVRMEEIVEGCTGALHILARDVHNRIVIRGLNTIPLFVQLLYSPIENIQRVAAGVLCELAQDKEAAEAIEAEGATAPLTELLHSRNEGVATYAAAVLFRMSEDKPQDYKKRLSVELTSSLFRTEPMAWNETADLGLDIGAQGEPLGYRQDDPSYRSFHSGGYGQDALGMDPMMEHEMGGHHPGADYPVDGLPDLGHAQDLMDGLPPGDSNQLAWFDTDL

[2] = biological target: T2, beta-catenin/TCF4 engagement (Homo sapiens, UniProt P35222); assay: Nano-BRET target engagement assay (B-cat-Halo & TCF4-Luc in HEK293 cells); assay type: cell-based; details: read-out: NanoBRET Abs IC50
T2 construct: expressed in transfected cells; host or cells: HEK293
T2 sequence (P35222 1-781): T1 sequence (P35222 1-781)

SMILES	IC50 [1] [µM]	IC50 ([2]; absolute IC50) [µM]	IC50 [2] [µM]
CC(=O)N1CCC[C@]12CC=CCCCC1(CCCC=CCCCCCC[C@@](C)(C(=O)N[C@@H](Cc3ccccc3)C(=O)N[C@@H](Cc3csc4ccccc34)C(=O)N[C@@H](CCC(N)=O)C(N)=O)NC(=O)[C@H](CCO)NC(=O)[C@H](Cc3ccccc3)NC(=O)[C@H](C)NC(=O)[C@H](C)NC(=O)[C@H](CCC(=O)O)NC(=O)[C@H](CC(=O)O)NC1=O)NC(=O)[C@H](Cc1ccccc1)NC(=O)[C@H](CC(=O)O)NC2=O (stereo partly drawn) [I-1551, Ac-PL3-Asp-Phe-B5-Asp-Glu-Ala-Ala-Phe-Hse-S8-Phe-BztA-Gln-NH2]	0.016	19.8	–
CC(=O)N1CCC[C@]12CC=CCCCC1(CCCC=CCCCOC(=O)N3CC[C@@](C(=O)N[C@@H](Cc4ccsc4)C(=O)N[C@@H](Cc4csc5ccccc45)C(=O)N[C@@H](CCC(N)=O)C(N)=O)(C3)NC(=O)[C@H](CC(C)C)NC(=O)[C@H](Cc3ccccc3)NC(=O)[C@H](C)NC(=O)[C@H](C)NC(=O)[C@H](Cn3cc(CCC(=O)O)nn3)NC(=O)[C@H](CC(=O)O)NC1=O)NC(=O)[C@H](CC(C)(C)C)NC(=O)[C@H](CC(=O)O)NC2=O (stereo partly drawn) [I-2082, Ac-PL3-Asp-Npg-B5-Asp-[CH2CH2CO2H]TriAzDap-Ala-Ala-Phe-Leu-PyrS2-3Thi-BztA-Gln-NH2]	0.005	–	7.7
CC(=O)N1CCC[C@]12CC=CCCCC1(CCCC=CCCCOC(=O)N3CC[C@@](C(=O)N[C@@H](Cc4ccsc4)C(=O)N[C@@H](Cc4csc5ccccc45)C(=O)N[C@@H](CCC(N)=O)C(N)=O)(C3)NC(=O)[C@H](CC(C)C)NC(=O)[C@H](Cc3ccccc3)NC(=O)[C@H](C)NC(=O)[C@H](C)NC(=O)[C@H](CCN(CCC(F)(F)F)CC(=O)O)NC(=O)[C@H](CC(=O)O)NC1=O)NC(=O)[C@H](CC(C)(C)C)NC(=O)[C@H](CC(=O)O)NC2=O (stereo partly drawn) [I-1839, Ac-PL3-Asp-Npg-B5-Asp-[Tfp]GAbu-Ala-Ala-Phe-Leu-PyrS2-3Thi-BztA-Gln-NH2]	0.021	14.6	–
COC(=O)C[C@@H]1NC(=O)[C@H](CC(=O)O)NC(=O)C2(CCCC=CCCCOC(=O)N3CC[C@@](C(=O)N[C@@H](Cc4ccsc4)C(=O)N[C@@H](Cc4csc5ccccc45)C(=O)N[C@@H](CCC(N)=O)C(N)=O)(C3)NC(=O)[C@H](CC(C)C)NC(=O)[C@H](Cc3ccccc3)NC(=O)[C@H](C)NC(=O)[C@H](C)NC1=O)CCCC=CC[C@]1(CCCN1C(C)=O)C(=O)N[C@@H](CC(=O)O)C(=O)N[C@@H](CC(C)(C)C)C(=O)N2 (stereo partly drawn) [I-2361, Ac-PL3-Asp-Npg-B5-Asp-[Me]AspE-Ala-Ala-Phe-Leu-PyrS2-3Thi-BztA-Gln-NH2]	0.349	36.7	–
CCNC(=O)CC[C@H](NC(=O)[C@H](Cc1csc2ccccc12)NC(=O)[C@H](Cc1ccsc1)NC(=O)[C@]12CCN(C1)C(=O)OCCCC=CCCCC1(CCCC=CC[C@]3(CCCN3C(C)=O)C(=O)N[C@@H](CC(=O)O)C(=O)N[C@@H](CC(C)(C)C)C(=O)N1)C(=O)N[C@@H](CC(=O)O)C(=O)N[C@@H](CN(CC(=O)O)CC(F)(F)F)C(=O)N[C@@H](C)C(=O)N[C@@H](C)C(=O)N[C@@H](Cc1ccccc1)C(=O)N[C@@H](CC(C)C)C(=O)N2)C(=O)N[C@@H](C)C(N)=O (stereo partly drawn) [I-2471, Ac-PL3-Asp-Npg-B5-Asp-TfeGA-Ala-Ala-Phe-Leu-PyrS2-3Thi-BztA-[NHEt]GlnR-Ala-NH2]	0.014	2.1	–
CC(=O)N1CC2CC1C(=O)N[C@@H](CC(=O)O)C(=O)N[C@@H](CC(C)(C)C)C(=O)NC1(CCCCCCCCOC(=O)N3CC[C@@](C(=O)N[C@@H](Cc4ccsc4)C(=O)N[C@@H](Cc4csc5ccccc45)C(=O)N[C@@H](CCC(N)=O)C(N)=O)(C3)NC(=O)[C@H](CC(C)C)NC(=O)[C@H](Cc3ccccc3)NC(=O)[C@H](C)NC(=O)[C@H](C)NC(=O)[C@H](CN(CC(=O)O)CC(F)(F)F)NC(=O)[C@H](CC(=O)O)NC1=O)CCCCCCOc1cccc(c1)C(=O)O2 (stereo partly drawn) [I-2328, Ac-HypBzEs3OAllyl-Asp-Npg-B5-Asp-TfeGA-Ala-Ala-Phe-Leu-PyrS2-3Thi-BztA-Gln-NH2]	0.17	> 20	–

From patent publication US20240116985A1, “STAPLED PEPTIDES AND METHODS THEREOF” (priority 2020, published 2024)
